Reference: patent publication US7361643B2, “Methods for inhibiting angiogenesis” (University of Puerto Rico, priority 2000, dated 2008)

Legend:
[1] = tested on: protein N-glycosylation; settings: pre-treatment of cells with β-antagonist; cited from earlier work
[2] = tested on: bovine adrenal medullary microvascular endothelial cells; assay: Cell cycle and apoptosis by flow cytometry (propidium iodide); format: cell-based
Protocol: Regarding flow cytometry, assessment of the cell cycle was determined by propidium iodide staining of fixed cell nuclei followed by flow cytometry in a FacSort (Beckton Dickinson) according to the method of Krishan (1975) as modified by Vindelov (1977), as discussed in KRISHAN, “Rapid Flow Cytofluorometric Analysis of Mammalian Cell Cycle by Propidium Iodide Staining”, J. Cell Biol., 66:188-193 (1975); and VINDELOV, “Flow Cytometric Analysis of Nuclear DNA in Cells from Solid Tumors and Cell Suspensions”, Virchows Arch (B), 24:227-231(1977), the disclosures of which are herein incorporated by reference in their entireties. Briefly, cells were trypsinized, and pelleted by centrifugation at 900 rpm in a bench top centrifuge (Sorvall T6000B). After washing twice with PBS the cell pellet was resuspended in propidium iodide-buffer (PI-buffer; 10 mM Tris-HCl, pH 8.0 containing 10 mM NaCl, 0.7 μM PI, 700 units/liter RNase, and 0.1% (v/v) NP-40), kept in ice for 30 minutes and then fixed with 2% (v/v) paraformaldehyde. After FacSort calibration, 3000 events were counted per sample. Acquisition and analysis of data were carried out by using Cell Quest flow cytometry software (Macintosh-based). Gates: M1=G0/G1, M2=S, M3=G2+M, M4=apoptosis.
Proliferation and Differentiation of Capillary Endothelial Cells: 2.0×10^4 cells were seeded per well in 24-well clusters in 1 ml complete EMEM containing 10% (v/v) serum and allowed to grow for 72 hours. Media were removed and the cells were washed twice with phosphate-buffer saline, pH 7.4 (PBS). Cells were synchronized by incubating for 48 hours in 2 mM hydroxyurea in serum-free EMEM with glutamine (2 mM) and one-third of penicillin-streptomycin used in a regular culture condition, followed by incubating 24 hours in serum-free EMEM, as discussed in CAO et al., “Modified Method of Mammalian Cell Synchronization Improves Yield and Degree of Synchronization”, Exp. Cell Res., 193:405-410 (1991), the disclosure of which is herein incorporated by reference in its entirety. Cells were routinely monitored by light microscopy. For proliferation assay, cells were trypsinized and counted in a hemacytometer. Viability of cells was determined by trypan blue (0.4% (v/v)) exclusion. Statistical analysis was carried out by StatView II software (Macintosh). Quantitation of cellular differentiation was carried out by observing under a Nikon AlphaShot inverted microscope, and counting the number of capillary lumen-like structures in five randomly selected fields per sample. The results were expressed as percent of its corresponding control after normalization of cell numbers. Analysis of Cell Cycle by Flow Cytometry: Assessment of the cell cycle was determined by propidium iodide staining of fixed cell nuclei followed by flow cytometry in a FacSort (Beckton Dickinson) according to the method of Krishan (1975) as modified by Vindelov (1977), as discussed in KRISHAN, “Rapid Flow Cytometric Analysis of Mammalian Cell Cycle by Propidium Iodide Staining”, J. Cell Biol. 66:188-195 (1975); and VINDELOV, “Flow Cytometric Analysis of Nuclear DNA in Cells from Solid Tumors and Cell Suspensions”, Virchows Arch (B), 24:227-231 (1977), the disclosures of which are herein incorporated by reference in their entireties. Briefly, cells were trypsinized, and pelleted by centrifugation at 900 rpm in a bench top centrifuge (Sorvall T6000B). After washing twice with PBS the cell pellet was resuspended in propidium iodide-buffer (PI-buffer; 10 mM Tris-HCl, pH 8.0 containing 10 mM NaCl, 0.7 μM PI, 700 units/liter RNase, and 0.1% (v/v) NP-40), kept in ice for 30 minutes and then fixed with 2% (v/v) paraformaldehyde. After FacSort calibration, 3000 events were counted per sample. Acquisition and analysis of data were carried out by using Cell Quest flow cytometry software (Macintosh-based). Gates: M1 G0/G1, M2=S, M3=G2+M, M4=apoptosis.

[3] = tested on: bovine adrenal medullary microvascular endothelial cells; assay: Capillary endothelial cell growth and proliferation (cell count in hemacytometer); format: cell-based
Protocol: Cells in the amount of 2.0×10^4 were seeded per well in 24-well clusters in 1 ml complete EMEM containing 10% (v/v) serum and allowed to grow for 72 hours. Media were removed and the cells were washed twice with phosphate-buffer saline, pH 7.4 (PBS). Cells were synchronized by incubating for 48 hours in 2 mM hydroxyurea in serum-free EMEM with glutamine (2 mM) and one-third of penicillin-streptomycin used in a regular culture condition, followed by incubating 24 hours in serum-free EMEM, as discussed in CAO et al., “Modified Method of Mammalian Cell Synchronization Improves Yield and Degree of Synchronization”, Exp. Cell Res., 193:405-410 (1991), the disclosure of which is herein incorporated by reference in its entirety.
For proliferation assay, cells were trypsinized and counted in a hemacytometer. Viability of cells was determined by trypan blue (0.4% (v/v)) exclusion. Statistical analysis was carried out by StatView II software (Macintosh). Quantitation of cellular differentiation was carried out by observing under a Nikon AlphaShot inverted microscope, and counting the number of capillary lumen-like structures in five randomly selected fields per sample.
Synchronized cells, as described in Example 1, were cultured at 37° C. in complete EMEM containing fetal bovine serum (1% (v/v), 2% (v/v), or 10% (v/v), or complete EMEM with 2% (v/v) fetal bovine serum containing 1 ng/ml −100 ng/ml of bFGF/FGF-2, or containing 0.5 μg/ml to 5.0 μg/ml tunicamycin (lot number 10922120-07 from Boehringer-Mannheim, Indianapolis, Ind.). In each case, the cellular growth and proliferation was monitored by trypan blue exclusion, by counting the cell number, and by their ability to process through the cell cycle by flow cytometry.
Proliferation and Differentiation of Capillary Endothelial Cells: 2.0×10^4 cells were seeded per well in 24-well clusters in 1 ml complete EMEM containing 10% (v/v) serum and allowed to grow for 72 hours. Media were removed and the cells were washed twice with phosphate-buffer saline, pH 7.4 (PBS). […] Cells were routinely monitored by light microscopy. For proliferation assay, cells were trypsinized and counted in a hemacytometer. Viability of cells was determined by trypan blue (0.4% (v/v)) exclusion. […] Quantitation of cellular differentiation was carried out by observing under a Nikon AlphaShot inverted microscope, and counting the number of capillary lumen-like structures in five randomly selected fields per sample. The results were expressed as percent of its corresponding control after normalization of cell numbers. Analysis of Cell Cycle by Flow Cytometry: Assessment of the cell cycle was determined by propidium iodide staining of fixed cell nuclei followed by flow cytometry in a FacSort (Beckton Dickinson) according to the method of Krishan (1975) as modified by Vindelov (1977), as discussed in KRISHAN, “Rapid Flow Cytometric Analysis of Mammalian Cell Cycle by Propidium Iodide Staining”, J. Cell Biol. 66:188-195 (1975); and VINDELOV, “Flow Cytometric Analysis of Nuclear DNA in Cells from Solid Tumors and Cell Suspensions”, Virchows Arch (B), 24:227-231 (1977), the disclosures of which are herein incorporated by reference in their entireties. […]

[4] = tested on: capillary endothelial cells; settings: BANERJEE et al. (1993); cited from earlier work
[5] = cycloheximide replacing tunicamycin (data not shown)

## Cc1ccc(OCC(O)C(C)NC(C)C)c2c1CCC2 (stereo not drawn) [ICI-118,551]
[1]
  protein N-glycosylation: reduced protein N-glycosylation substantially

## CC(C)NCC(O)COc1ccc(CC(N)=O)cc1 (stereo not drawn) [atenolol]
[1]
  protein N-glycosylation: reduced protein N-glycosylation substantially

## C[C@@H]1C[C@@H]([C@H](O)CC2CC(=O)NC(=O)C2)C(=O)[C@@H](C)C1 [cycloheximide]
[2]; [5]
  induction of apoptosis: did not induce apoptosis
[3]; [5]
  cell proliferation: inhibited the cell proliferation in a time- and dose-dependent manner

## Amphomycin
[4]
  endothelial cell proliferation: inhibits endothelial cell proliferation in a dose-dependent manner

## bFGF/FGF-2: basic fibroblast growth factor
[2]; bFGF/FGF-2 10 ng/ml-100 ng/ml (68 hours in 2% serum control)
  time to complete the cell cycle: 56 h
[2]; bFGF/FGF-2 10 ng/ml-100 ng/ml versus 2% serum
  shortening of the G1 phase: 12 h
[3]; bFGF/FGF-2 10 ng/ml-100 ng/ml in 2% serum
  endothelial cell proliferation: stimulated the endothelial cell proliferation over the controls
[3]; bFGF/FGF-2 at stimulatory concentrations
  reduction of the lag phase: ~24 h
